Assay results reported in patent publication US20240307382A1, “MODULATORS OF THE INTEGRATED STRESS PATHWAY” (Calico Life Sciences LLC, priority 2017, published 2024).

What follows are compounds tested on HEK293T cells carrying the ATF4 luciferase reporter (assay: ATF4-Luc assay (ATF4 luciferase reporter, tunicamycin-treated cells)). Details: Homo sapiens, HEK-293T, 1 μg/mL tunicamycin, 7 hours.
Format: cell-based
Procedure: In order to test exemplary compounds of the invention in a cellular context, a stable VWMD cell line was first constructed. The ATF4 reporter was prepared by fusing the human full-length ATF4 5′-UTR (NCBI Accession No. BC022088.2) in front of the firefly luciferase (FLuc) coding sequence lacking the initiator methionine as described in Sidrauski et al (eLife 2013). The construct was used to produce recombinant retroviruses using standard methods and the resulting viral supermatant was used to transduce ITEK293T cells, which were then subsequently selected with puromycin to generate a stable cell line.
HTEK293T cells carrying the ATF4 luciferase reporter were plated on polylysine coated 384-well plates (Greiner Bio-one) at 30,000 cells per well. Cells were treated the next day with 1 μg/mL tunicamycin and 200 nM of a compound of Formula (I) for 7 hours. Luminescence was measured using One Glo (Promega) as specified by the manufacturer. Cells were maintained in DMEM with L-glutamine supplemented with 10% heat-inactivated FBS (Gibco) and Antibiotic-Antimycotic solution (Gibco).
Table 2 below summarizes the EC50 data obtained using the ATF4-Luc assay for exemplary compounds of the invention.
With CN(C)Cc1ccnc(C(=O)NC23CCC(NC(=O)COc4ccc(Cl)c(F)c4)(CC2)CC3)c1 [Compound 974, N-{4-[2-(4-chloro-3-fluorophenoxy)acetamido]bicyclo[2.2.2]octan-1-yl}-4-[(dimethylamino)methyl]pyridine-2-carboxamide] the EC50 was > 2000 nM. With NCc1ccnc(C(=O)NC23CCC(NC(=O)COc4ccc(Cl)c(F)c4)(CC2)CC3)c1 [Compound 975, 4-(aminomethyl)-N-{4-[2-(4-chloro-3-fluorophenoxy)acetamido]bicyclo[2.2.2]octan-1-yl}pyridine-2-carboxamide] the EC50 was < 50 nM. With O=C(COc1ccc(Cl)c(F)c1)NC12CCC(NC(=O)c3cc4cccn4cn3)(CC1)C[C@@H]2O [Compound 976, N-{(3S)-4-[2-(4-chloro-3-fluorophenoxy)acetamido]-3-hydroxybicyclo[2.2.2]octan-1-yl}pyrrolo[1,2-c]pyrimidine-3-carboxamide] the EC50 was 50 to 250 nM. O=C(COc1ccc(Cl)c(F)c1)NC12CCC(NC(=O)c3ccnc(CO)c3)(CC1)CC2 [Compound 977, N-{4-[2-(4-chloro-3-fluorophenoxy)acetamido]bicyclo[2.2.2]octan-1-yl}-2-(hydroxymethyl)pyridine-4-carboxamide] was tested, and the EC50 was > 2000 nM. CC(C)(C)OC(=O)NCc1ccnc(C(=O)NC23CCC(NC(=O)COc4ccc(Cl)c(F)c4)(CC2)CC3)c1 [Compound 978, tert-butyl {[2-({4-[2-(4-chloro-3-fluorophenoxy)acetamido]bicyclo[2.2.2]octan-1-yl}carbamoyl)pyridin-4-yl]methyl}carbamate] was tested, and the EC50 was > 2000 nM. With CCc1cnc(C(=O)NC23CCC(NC(=O)COc4ccc(Cl)c(F)c4)(CC2)CC3)cn1 [Compound 979, N-{4-[2-(4-chloro-3-fluorophenoxy)acetamido]bicyclo[2.2.2]octan-1-yl}-5-ethylpyrazine-2-carboxamide] the EC50 was > 2000 nM. Work on O=C(COc1ccc(Cl)c(Cl)c1)NC12CCC(NC(=O)c3ccc(C(F)F)cn3)(CC1)CC2 [Compound 980, N-{4-[2-(3,4-dichlorophenoxy)acetamido]bicyclo[2.2.2]octan-1-yl}-5-(difluoromethyl)pyridine-2-carboxamide] yielded an EC50 of 50 to 250 nM. O=C(COc1ccc(Cl)c(F)c1)NC12CCC(NC(=O)c3cccc(CO)c3)(CC1)CC2 [Compound 981, N-{4-[2-(4-chloro-3-fluorophenoxy)acetamido]bicyclo[2.2.2]octan-1-yl}-3-(hydroxymethyl)benzamide] gave an EC50 of 250 to 1000 nM. With O=C(COc1ccc(Cl)c(F)c1)NC12CCC(NC(=O)c3cccc(O)c3)(CC1)CC2 [Compound 982, N-{4-[2-(4-chloro-3-fluorophenoxy)acetamido]bicyclo[2.2.2]octan-1-yl}-3-hydroxybenzamide] the EC50 was 250 to 1000 nM. In the case of O=C(COc1ccc(Cl)c(F)c1)NC12CCC(NC(=O)c3cc(C(F)F)no3)(CC1)CC2 [Compound 983, N-{4-[2-(4-chloro-3-fluorophenoxy)acetamido]bicyclo[2.2.2]octan-1-yl}-3-(difluoromethyl)-1,2-oxazole-5-carboxamide], the EC50 is reported as 250 to 1000 nM. O=C(COc1ccc(Cl)c(F)c1)NC12CCC(NC(=O)c3ccc4c(c3)OC(F)(F)O4)(CC1)C[C@@H]2O [Compound 984, N-{(3S)-4-[2-(4-chloro-3-fluorophenoxy)acetamido]-3-hydroxybicyclo[2.2.2]octan-1-yl}-2,2-difluoro-2H-1,3-benzodioxole-5-carboxamide] was tested, and the EC50 was < 50 nM. With O=C(COc1ccc(Cl)c(Cl)c1)NC12CCC(NC(=O)c3ccc4c(c3)OC(F)(F)O4)(CC1)C[C@@H]2O [Compound 985, N-{(3S)-4-[2-(3,4-dichlorophenoxy)acetamido]-3-hydroxybicyclo[2.2.2]octan-1-yl}-2,2-difluoro-2H-1,3-benzodioxole-5-carboxamide] the EC50 was < 50 nM. With O=C(COc1ccc(Cl)c(F)c1)NC12CCC(NC(=O)c3cnc(C(F)F)cn3)(CC1)C[C@@H]2O [Compound 986, N-{(3S)-4-[2-(4-chloro-3-fluorophenoxy)acetamido]-3-hydroxybicyclo[2.2.2]octan-1-yl}-5-(difluoromethyl)pyrazine-2-carboxamide] the EC50 was < 50 nM. For O=C(COc1ccc(Cl)c(Cl)c1)NC12CCC(NC(=O)c3ccc(C(F)F)nc3)(CC1)C[C@@H]2O [Compound 987, N-{(3S)-4-[2-(3,4-dichlorophenoxy)acetamido]-3-hydroxybicyclo[2.2.2]octan-1-yl}-6-(difluoromethyl)pyridine-3-carboxamide], the EC50 was < 50 nM. O=C(COc1ccc(Cl)c(F)c1)NC12CCC(NC(=O)c3ccc(C(F)F)nc3)(CC1)C[C@@H]2O [Compound 988, N-{(3S)-4-[2-(4-chloro-3-fluorophenoxy)acetamido]-3-hydroxybicyclo[2.2.2]octan-1-yl}-6-(difluoromethyl)pyridine-3-carboxamide] was tested, and the EC50 was 50 to 250 nM. O=C(COc1ccc(Cl)c(F)c1)NC12CCC(NC(=O)c3cnc(C4CC4)o3)(CC1)CC2 [Compound 989, N-{4-[2-(4-chloro-3-fluorophenoxy)acetamido]bicyclo[2.2.2]octan-1-yl}-2-cyclopropyl-1,3-oxazole-5-carboxamide] showed an EC50 of 250 to 1000 nM. In the case of O=C(COc1ccc(Cl)c(Cl)c1)NC12CCC(NC(=O)c3ccc(C(F)F)cn3)(CC1)C[C@@H]2O [Compound 990, N-{(3S)-4-[2-(3,4-dichlorophenoxy)acetamido]-3-hydroxybicyclo[2.2.2]octan-1-yl}-5-(difluoromethyl)pyridine-2-carboxamide], the EC50 is reported as < 50 nM. O=C(COc1ccc(Cl)c(Cl)c1)NC12CCC(NC(=O)c3cc(CO)ccn3)(CC1)CC2 [Compound 991, N-{4-[2-(3,4-dichlorophenoxy)acetamido]bicyclo[2.2.2]octan-1-yl}-4-(hydroxymethyl)pyridine-2-carboxamide] was tested, and the EC50 was < 50 nM. COCc1cncc(C(=O)NC23CCC(NC(=O)COc4ccc(Cl)c(Cl)c4)(CC2)CC3)c1 [Compound 992, N-{4-[2-(3,4-dichlorophenoxy)acetamido]bicyclo[2.2.2]octan-1-yl}-5-(methoxymethyl)pyridine-3-carboxamide] was tested, and the EC50 was 50 to 250 nM. Work on O=C(COc1ccc(Cl)c(Cl)c1)NC12CCC(NC(=O)c3ccccn3)(CC1)CC2 [Compound 993, N-{4-[2-(3,4-dichlorophenoxy)acetamido]bicyclo[2.2.2]octan-1-yl}pyridine-2-carboxamide] yielded an EC50 of 50 to 250 nM. Compound O=C(COc1ccc(Cl)c(Cl)c1)NC12CCC(NC(=O)c3cccnc3)(CC1)CC2 [Compound 994, N-{4-[2-(3,4-dichlorophenoxy)acetamido]bicyclo[2.2.2]octan-1-yl}pyridine-3-carboxamide] has an EC50 of 250 to 1000 nM. With O=C(COc1ccc(Cl)c(F)c1)NC12CCC(NC(=O)c3cc(CO)ccn3)(CC1)CC2 [Compound 995, N-{4-[2-(4-chloro-3-fluorophenoxy)acetamido]bicyclo[2.2.2]octan-1-yl}-4-(hydroxymethyl)pyridine-2-carboxamide] the EC50 was < 50 nM. O=C(COc1ccc(Cl)c(F)c1)NC12CCC(NC(=O)c3ccc(OC(F)(F)F)nc3)(CC1)CC2 [Compound 996, N-{4-[2-(4-chloro-3-fluorophenoxy)acetamido]bicyclo[2.2.2]octan-1-yl}-6-(trifluoromethoxy)pyridine-3-carboxamide] was tested, and the EC50 was > 2000 nM. Compound O=C(COc1ccc(Cl)c(F)c1)NC12CCC(NC(=O)c3ccc(OC(F)(F)F)cn3)(CC1)CC2 [Compound 997, N-{4-[2-(4-chloro-3-fluorophenoxy)acetamido]bicyclo[2.2.2]octan-1-yl}-5-(trifluoromethoxy)pyridine-2-carboxamide] has an EC50 of 50 to 250 nM.
